# Test results: PMC5785997, “2-Phenylquinazolinones as dual-activity tankyrase-kinase inhibitors” (Scientific Reports, 2018)
# How the values were obtained:
# TNKS2 = TNKS2 (Homo sapiens, UniProt Q9H2K2); experiment: NAD+ quantification activity assay, TNKS2; assay type: biochemical; details: TNKS2 IC50, NAD+ 500 nM
# Experimental: The activity assay used to measure the potency of the compounds against TNKS2 is based on the quantification of NAD^+[38]. The reactions were carried out in 96-well plate (Greiner bio-one, U-shaped) and the conditions were the same as reported earlier (Table S5)[24].
# The compounds were stored in 100% DMSO at −20 °C. All the compounds were diluted in the TNKS2 assay buffer (50 mM Bis-Tris Propane, 0.5 mM TCEP, 0.01% Triton-100x). Control reactions were used to exclude the effect of compound fluorescence and quenching from the calculations. […] The pIC50 values were calculated and fitted with nonlinear regression using 4-parameters with GraphPad Prism (version 5.0 for windows).
# (§1) Protein (nM) NAD+ (nM) Incubation Buffer
# (§2) Kinase [ATP] Substrate Incubation Reaction buffer
# ARTD5/TNKS1 = ARTD5/TNKS1 (Homo sapiens, UniProt O95271); experiment: NAD+ quantification activity assay, TNKS1; assay type: biochemical; details: NAD+ 500 nM
# Experimental: as §1, §2
# CDK9 = CDK9 (Homo sapiens, UniProt P50750); experiment: Kinase functional assay (mobility shift), CDK9; assay type: biochemical; details: read-out: CDK9 (% Inhib.); for inhibition at 1 µM: 1 µM compound, Table S3; for inhibition at 10 µM: 10 µM compound, Table S4
# Akt = experiment: Kinase functional assay (mobility shift), Akt; assay type: biochemical
# ERK2 = ERK2 (Homo sapiens, UniProt P28482); experiment: Kinase functional assay (mobility shift), ERK2 (p42); assay type: biochemical; details: read-out: ERK2 (% Inhib.); for inhibition at 1 µM: 1 µM compound, Table S3; for inhibition at 10 µM: 10 µM compound, Table S4
# p38α = p38α (Homo sapiens, UniProt Q16539); experiment: Kinase functional assay (mobility shift), p38α; assay type: biochemical; details: read-out: p38α (% Inhib.); for inhibition at 1 µM: 1 µM compound, Table S3; for inhibition at 10 µM: 10 µM compound, Table S4
# GSK3β = GSK3β (Homo sapiens, UniProt P49841); experiment: Kinase functional assay (mobility shift), GSK3β; assay type: biochemical; details: read-out: GSK3β (% Inhib.); for inhibition at 1 µM: 1 µM compound, Table S3; for inhibition at 10 µM: 10 µM compound, Table S4
# human CK2α-1 = target: T1, human CK2α-1 (Homo sapiens, UniProt P68400); experiment: ADP-Glo kinase assay, CK2; assay type: biochemical; details: read-out: CK2 (% Inhib.); for inhibition at 1 µM: 1 µM compound, Table S3; for inhibition at 10 µM: 10 µM compound, Table S4
# T1 construct: purchased Promega V4,482
# Experimental: The kinase functional assays were performed using a combination of kinase and 1.5 μM peptide substrate in the presence of ATP. The reaction mixture was analyzed on the Caliper LabChip 3,000 (Caliper, Hopkinton, MA) by the electrophoretic mobility shift of the fluorescent substrate and phosphorylated product. For the inhibition of human CK2α-1, the experiments were carried out with ADP-Glo kinase Assay Kit (Promega V9,101). Assays are described in detail in the Supplementary Methods and Table S6. […]
# Dose-response curves were generated to determine the concentration required to inhibit 50% of kinase activity (IC50). Staurosporine (Invitrogen BP2,451) was included as a positive control of each enzymatic assay. The profiling of the kinases was done at 1 and at 10 μM of the compound.
# For the inhibition of human CK2α-1, the experiments were carried out in a white 384-microplate low flange (Corning 3,572) with ADP-Glo kinase Assay Kit (Promega V9101) and CK2α-1 Kinase Enzyme System (Promega V4,482). The test compounds and standard staurosporine (Invitrogen BP2451), 25 ng/well CK2α-1 kinase and 50 µM ATP were added in a final volume of 10 µl/well using reaction buffer supplied by kit as assay buffer. The reaction mixture was incubated in gentle shaking for 60 minutes at room temperature. After the incubation 10 µl of ADP-Glo reagent was added and incubated in gentle shaking for 40 minutes at room temperature. Finally 20 µl of Kinase Detection Reagent was added and the plate was incubated on a shaker for 30 minutes at room […]
# temperature. […]
# ARTD1/PARP1 = ARTD1/PARP1 (Homo sapiens, UniProt P09874); experiment: ARTD profiling, ARTD1
# ARTD2/PARP2 = ARTD2/PARP2 (Homo sapiens, UniProt Q9UGN5); experiment: ARTD profiling, ARTD2
# ARTD4/PARP4 = target: T2, ARTD4/PARP4 (Homo sapiens, UniProt Q9UKK3); experiment: ARTD profiling, ARTD4
# T2 sequence (Q9UKK3 369-573 limits assumed): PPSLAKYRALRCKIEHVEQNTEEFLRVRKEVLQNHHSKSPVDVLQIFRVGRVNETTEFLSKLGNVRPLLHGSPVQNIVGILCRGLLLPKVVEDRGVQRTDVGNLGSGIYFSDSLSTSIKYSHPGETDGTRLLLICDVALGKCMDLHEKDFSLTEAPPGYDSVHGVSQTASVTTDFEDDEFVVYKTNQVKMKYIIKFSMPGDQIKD
# ARTD7/PARP15 = target: T3, ARTD7/PARP15 (Homo sapiens, UniProt Q460N3); experiment: ARTD profiling, ARTD7
# T3 sequence (Q460N3 482-678 limits assumed): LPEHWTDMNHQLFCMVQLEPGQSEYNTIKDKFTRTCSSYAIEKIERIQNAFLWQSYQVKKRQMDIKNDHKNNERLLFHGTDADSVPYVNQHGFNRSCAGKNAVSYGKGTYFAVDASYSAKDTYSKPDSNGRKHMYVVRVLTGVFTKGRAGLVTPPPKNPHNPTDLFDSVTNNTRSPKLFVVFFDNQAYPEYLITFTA
# ARTD8/PARP14 = ARTD8/PARP14 (Homo sapiens, UniProt Q460N5); experiment: ARTD profiling, ARTD8
# ARTD15/PARP16 = target: T4, ARTD15/PARP16 (Homo sapiens, UniProt Q8N5Y8); experiment: ARTD profiling, ARTD15
# T4 sequence (Q8N5Y8 1-322): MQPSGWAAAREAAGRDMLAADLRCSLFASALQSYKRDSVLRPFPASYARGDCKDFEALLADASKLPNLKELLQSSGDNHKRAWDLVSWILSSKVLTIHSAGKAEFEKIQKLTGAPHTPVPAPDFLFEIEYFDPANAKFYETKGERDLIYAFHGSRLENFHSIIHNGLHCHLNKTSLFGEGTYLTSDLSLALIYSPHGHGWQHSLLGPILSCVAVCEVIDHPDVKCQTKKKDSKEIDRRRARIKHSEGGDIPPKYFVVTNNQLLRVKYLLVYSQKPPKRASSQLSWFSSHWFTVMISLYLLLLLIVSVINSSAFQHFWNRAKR
# Chain of p38α (Q16539 whole entry): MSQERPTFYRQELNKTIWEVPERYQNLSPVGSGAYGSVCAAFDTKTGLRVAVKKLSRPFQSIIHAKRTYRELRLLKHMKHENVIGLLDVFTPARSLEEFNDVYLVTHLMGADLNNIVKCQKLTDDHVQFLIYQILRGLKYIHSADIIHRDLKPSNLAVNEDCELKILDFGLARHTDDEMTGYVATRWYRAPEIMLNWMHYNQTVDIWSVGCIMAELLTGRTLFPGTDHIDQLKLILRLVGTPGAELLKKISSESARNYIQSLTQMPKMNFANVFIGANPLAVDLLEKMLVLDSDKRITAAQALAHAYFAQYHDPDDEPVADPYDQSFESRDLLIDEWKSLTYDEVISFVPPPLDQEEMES
# T1 sequence (P68400 whole entry): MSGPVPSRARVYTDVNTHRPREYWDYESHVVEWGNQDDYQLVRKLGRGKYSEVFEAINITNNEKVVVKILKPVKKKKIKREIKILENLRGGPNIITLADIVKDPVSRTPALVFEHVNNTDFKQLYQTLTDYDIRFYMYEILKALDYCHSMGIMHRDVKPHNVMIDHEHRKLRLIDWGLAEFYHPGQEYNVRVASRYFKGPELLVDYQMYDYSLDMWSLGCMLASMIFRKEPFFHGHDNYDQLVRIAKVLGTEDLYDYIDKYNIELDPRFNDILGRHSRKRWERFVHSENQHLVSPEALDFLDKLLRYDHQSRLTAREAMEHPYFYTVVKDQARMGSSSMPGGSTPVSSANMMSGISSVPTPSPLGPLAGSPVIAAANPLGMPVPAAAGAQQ
# Chain of GSK3β (P49841 whole entry, species assumed): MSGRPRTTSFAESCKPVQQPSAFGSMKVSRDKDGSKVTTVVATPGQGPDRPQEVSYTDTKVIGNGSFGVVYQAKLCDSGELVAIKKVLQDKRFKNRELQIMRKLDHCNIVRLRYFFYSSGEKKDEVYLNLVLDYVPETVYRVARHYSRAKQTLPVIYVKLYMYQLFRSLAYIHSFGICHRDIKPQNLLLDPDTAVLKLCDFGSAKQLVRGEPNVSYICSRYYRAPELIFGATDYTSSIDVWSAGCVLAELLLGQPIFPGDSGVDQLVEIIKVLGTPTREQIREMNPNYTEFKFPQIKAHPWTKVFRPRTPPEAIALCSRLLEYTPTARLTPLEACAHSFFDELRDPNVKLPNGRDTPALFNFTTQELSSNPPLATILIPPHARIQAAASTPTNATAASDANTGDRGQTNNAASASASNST
# Chain of ERK2 (P28482 whole entry, species assumed): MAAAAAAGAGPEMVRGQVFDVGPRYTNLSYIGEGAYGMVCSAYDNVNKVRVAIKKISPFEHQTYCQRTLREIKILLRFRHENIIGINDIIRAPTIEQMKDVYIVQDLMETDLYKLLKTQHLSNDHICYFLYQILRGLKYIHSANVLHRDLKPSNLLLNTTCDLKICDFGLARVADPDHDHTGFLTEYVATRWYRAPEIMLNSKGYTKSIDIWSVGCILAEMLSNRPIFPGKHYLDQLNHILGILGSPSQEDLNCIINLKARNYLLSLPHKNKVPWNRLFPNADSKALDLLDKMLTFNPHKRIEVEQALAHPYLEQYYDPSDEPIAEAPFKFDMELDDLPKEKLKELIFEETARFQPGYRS
# Chain of CDK9 (P50750 whole entry, species assumed): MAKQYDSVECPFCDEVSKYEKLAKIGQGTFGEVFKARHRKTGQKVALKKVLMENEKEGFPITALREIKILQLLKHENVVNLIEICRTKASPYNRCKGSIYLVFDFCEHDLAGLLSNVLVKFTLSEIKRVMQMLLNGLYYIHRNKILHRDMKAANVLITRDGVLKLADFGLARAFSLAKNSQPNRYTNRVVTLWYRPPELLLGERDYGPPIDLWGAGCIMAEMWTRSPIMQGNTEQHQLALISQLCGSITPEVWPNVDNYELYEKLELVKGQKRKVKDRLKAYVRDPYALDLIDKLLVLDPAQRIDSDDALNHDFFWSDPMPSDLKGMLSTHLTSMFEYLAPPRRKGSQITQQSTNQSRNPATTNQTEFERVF
# Chain of CDK9 (O60563 whole entry partner, species assumed): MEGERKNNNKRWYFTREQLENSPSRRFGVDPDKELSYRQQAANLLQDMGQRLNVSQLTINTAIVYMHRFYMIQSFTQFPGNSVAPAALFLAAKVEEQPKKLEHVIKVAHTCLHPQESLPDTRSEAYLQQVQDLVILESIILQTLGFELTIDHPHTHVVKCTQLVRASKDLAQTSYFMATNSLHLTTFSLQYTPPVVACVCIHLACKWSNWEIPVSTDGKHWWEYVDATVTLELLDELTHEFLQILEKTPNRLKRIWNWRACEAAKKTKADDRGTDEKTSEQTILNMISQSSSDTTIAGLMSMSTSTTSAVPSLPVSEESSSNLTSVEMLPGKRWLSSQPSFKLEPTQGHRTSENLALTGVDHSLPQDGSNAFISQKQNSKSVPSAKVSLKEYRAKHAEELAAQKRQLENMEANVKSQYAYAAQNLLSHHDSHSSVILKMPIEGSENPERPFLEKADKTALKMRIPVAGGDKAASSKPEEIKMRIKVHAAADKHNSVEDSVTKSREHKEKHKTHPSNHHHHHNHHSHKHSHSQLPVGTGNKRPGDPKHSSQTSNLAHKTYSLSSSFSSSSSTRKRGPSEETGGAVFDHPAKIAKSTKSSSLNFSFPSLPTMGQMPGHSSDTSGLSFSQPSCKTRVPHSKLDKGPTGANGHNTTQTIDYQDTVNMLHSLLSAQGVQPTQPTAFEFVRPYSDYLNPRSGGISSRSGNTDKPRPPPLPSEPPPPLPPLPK
# Chain of ARTD2/PARP2 (Q9UGN5 whole entry): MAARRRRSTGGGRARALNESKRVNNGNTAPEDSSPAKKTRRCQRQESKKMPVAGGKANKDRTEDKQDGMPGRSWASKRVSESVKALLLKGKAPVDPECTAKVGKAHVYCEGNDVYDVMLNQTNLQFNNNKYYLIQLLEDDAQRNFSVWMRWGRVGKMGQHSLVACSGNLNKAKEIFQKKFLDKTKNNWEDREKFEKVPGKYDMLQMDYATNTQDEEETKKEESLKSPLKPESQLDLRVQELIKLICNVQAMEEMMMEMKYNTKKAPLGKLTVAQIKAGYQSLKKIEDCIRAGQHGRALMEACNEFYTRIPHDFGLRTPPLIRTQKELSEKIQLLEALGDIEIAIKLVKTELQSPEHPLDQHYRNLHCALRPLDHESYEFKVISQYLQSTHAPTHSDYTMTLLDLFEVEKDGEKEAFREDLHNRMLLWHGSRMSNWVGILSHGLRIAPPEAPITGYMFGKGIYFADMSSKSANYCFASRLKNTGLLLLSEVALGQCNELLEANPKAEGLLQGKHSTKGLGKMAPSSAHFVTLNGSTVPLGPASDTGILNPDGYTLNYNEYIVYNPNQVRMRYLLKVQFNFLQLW
# Chain of ARTD5/TNKS1 (O95271 1112-1317): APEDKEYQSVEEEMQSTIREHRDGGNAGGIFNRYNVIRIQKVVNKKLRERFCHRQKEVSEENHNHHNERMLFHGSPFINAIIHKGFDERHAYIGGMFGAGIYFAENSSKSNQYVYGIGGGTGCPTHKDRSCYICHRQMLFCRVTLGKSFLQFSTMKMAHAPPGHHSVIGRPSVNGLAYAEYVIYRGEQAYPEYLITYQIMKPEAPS
# Chain of TNKS2 (Q9H2K2 959-1164): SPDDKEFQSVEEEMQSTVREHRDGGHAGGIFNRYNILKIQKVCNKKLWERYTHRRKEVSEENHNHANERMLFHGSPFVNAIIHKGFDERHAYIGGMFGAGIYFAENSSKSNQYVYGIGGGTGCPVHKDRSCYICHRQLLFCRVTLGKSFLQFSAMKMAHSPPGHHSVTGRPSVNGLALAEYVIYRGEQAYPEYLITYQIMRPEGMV
# Chain of ARTD1/PARP1 (P09874 whole entry): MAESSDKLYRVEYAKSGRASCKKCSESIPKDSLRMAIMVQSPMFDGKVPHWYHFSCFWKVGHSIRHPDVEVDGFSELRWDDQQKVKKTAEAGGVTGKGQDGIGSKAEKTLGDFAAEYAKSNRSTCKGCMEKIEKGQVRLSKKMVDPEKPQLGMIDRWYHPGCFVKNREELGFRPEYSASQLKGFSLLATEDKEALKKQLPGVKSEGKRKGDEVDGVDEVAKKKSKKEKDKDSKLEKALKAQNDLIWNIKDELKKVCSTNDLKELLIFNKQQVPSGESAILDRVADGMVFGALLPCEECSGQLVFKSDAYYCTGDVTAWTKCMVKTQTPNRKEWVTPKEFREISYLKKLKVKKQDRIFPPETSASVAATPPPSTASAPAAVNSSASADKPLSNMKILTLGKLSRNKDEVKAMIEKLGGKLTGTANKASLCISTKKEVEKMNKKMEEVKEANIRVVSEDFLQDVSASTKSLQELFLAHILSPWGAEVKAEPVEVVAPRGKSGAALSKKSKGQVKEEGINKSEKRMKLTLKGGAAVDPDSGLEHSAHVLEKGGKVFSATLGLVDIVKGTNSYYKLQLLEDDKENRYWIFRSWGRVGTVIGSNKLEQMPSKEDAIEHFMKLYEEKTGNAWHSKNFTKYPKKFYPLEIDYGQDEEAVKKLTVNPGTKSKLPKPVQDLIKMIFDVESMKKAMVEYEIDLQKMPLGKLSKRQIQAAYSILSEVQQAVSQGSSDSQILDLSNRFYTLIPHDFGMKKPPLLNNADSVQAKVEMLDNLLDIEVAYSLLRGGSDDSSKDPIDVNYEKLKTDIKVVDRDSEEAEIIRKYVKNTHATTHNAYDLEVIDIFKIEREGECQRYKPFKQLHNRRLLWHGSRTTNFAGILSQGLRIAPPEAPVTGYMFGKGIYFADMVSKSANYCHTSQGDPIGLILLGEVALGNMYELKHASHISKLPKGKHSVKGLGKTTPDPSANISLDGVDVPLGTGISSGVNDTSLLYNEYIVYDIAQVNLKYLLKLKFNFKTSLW
smiles,measurement,setting,value
CCN(CC)c1ccc(-c2nc3ccccc3c(=O)[nH]2)cc1 [Compound 32],IC50,TNKS2,0.01 µM
same,IC50,ARTD5/TNKS1,0.011 µM
same,inhibition at 1 µM,CDK9,13 ± 4%
same,inhibition at 10 µM,CDK9,16 ± 3%
same,AKT (% Inhib.),"Akt; 1 µM compound, Table S3",1 ± 1%
same,AKT (% Inhib.),"Akt; 10 µM compound, Table S4",48 ± 4%
same,inhibition at 1 µM,ERK2,2 ± 1%
same,inhibition at 10 µM,ERK2,18 ± 3%
same,inhibition at 1 µM,p38α,1 ± 1%
same,inhibition at 10 µM,p38α,20 ± 2%
same,inhibition at 1 µM,GSK3β,1 ± 1%
same,inhibition at 10 µM,GSK3β,4 ± 4%
same,inhibition at 1 µM,human CK2α-1,2 ± 1%
same,inhibition at 10 µM,human CK2α-1,2 ± 1%
same,IC50,ARTD1/PARP1,30 µM
same,IC50,ARTD2/PARP2,24 µM
same,IC50,ARTD4/PARP4,5.5 µM
same,IC50,ARTD7/PARP15,> 10 µM
same,IC50,ARTD8/PARP14,> 10 µM
same,IC50,ARTD15/PARP16,> 10 µM
O=c1[nH]c(-c2ccc(N3CCCCC3)cc2)nc2ccccc12 [Compound 30],IC50,TNKS2,0.015 µM
same,IC50,ARTD5/TNKS1,0.03 µM
same,inhibition at 1 µM,CDK9,12 ± 4%
same,inhibition at 10 µM,CDK9,31 ± 4%
same,AKT (% Inhib.),"Akt; 1 µM compound, Table S3",1 ± 1%
same,AKT (% Inhib.),"Akt; 10 µM compound, Table S4",2 ± 2%
same,inhibition at 1 µM,ERK2,2 ± 1%
same,inhibition at 10 µM,ERK2,3 ± 1%
same,inhibition at 1 µM,p38α,3 ± 1%
same,inhibition at 10 µM,p38α,3 ± 3%
same,inhibition at 1 µM,GSK3β,1 ± 1%
same,inhibition at 10 µM,GSK3β,11 ± 3%
same,inhibition at 1 µM,human CK2α-1,1 ± 1%
same,inhibition at 10 µM,human CK2α-1,1 ± 1%
same,IC50,ARTD1/PARP1,18 µM
same,IC50,ARTD2/PARP2,8.6 µM
same,IC50,ARTD4/PARP4,12 µM
same,IC50,ARTD7/PARP15,> 10 µM
same,IC50,ARTD8/PARP14,> 10 µM
same,IC50,ARTD15/PARP16,> 10 µM
